Assay results taken from ChEMBL document CHEMBL3352085, “In vitro evaluation of potential bitterness-masking terpenoids from the Canada goldenrod (Solidago canadensis)” (J Nat Prod, 2014).

Target: T1, Taste receptor type 2 member 31 (Homo sapiens, UniProt P59538)
T1 sequence (P59538 whole entry): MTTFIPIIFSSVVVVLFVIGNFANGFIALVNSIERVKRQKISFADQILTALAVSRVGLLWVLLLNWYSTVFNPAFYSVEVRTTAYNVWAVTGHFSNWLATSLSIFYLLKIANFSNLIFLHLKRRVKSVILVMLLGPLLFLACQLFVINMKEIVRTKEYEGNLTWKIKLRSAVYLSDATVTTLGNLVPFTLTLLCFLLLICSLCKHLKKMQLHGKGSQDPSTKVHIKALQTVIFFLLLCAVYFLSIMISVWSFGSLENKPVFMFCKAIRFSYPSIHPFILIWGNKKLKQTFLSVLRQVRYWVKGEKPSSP
Experiment: Antagonist activity at human TAS2R31 expressed in HEK-293T cells stably expressing Galpha16gust44 assessed as inhibition receptor response to saccharin by fluorescence assay
Assay type: cell-based

IC50	SMILES
8 µM	C=C1CC[C@H]2C(C)(C)[C@@H](OC(C)=O)CC[C@]2(C)[C@H]1CC/C(C)=C/C(=O)O
> 25 µM	CC(=O)O[C@H]1CC[C@]2(C)[C@@H](CC/C(C)=C/C(=O)O)C(C)=CC[C@H]2C1(C)C
